In paper PMC6647725 (Analytical and Bioanalytical Chemistry, 2019):

Key:
[1] = Stability of stock solutions at − 20 °C; format: physicochemical; details: 1 mg/mL stock solution, storage at − 20 °C
Description: (§1) The stability of each analyte was investigated in all the previously mentioned matrices. For plasma (both human and mouse), the stability was determined in triplicate at two concentration levels, QC L and QC H, whereas for mouse tissue homogenates only at QC M (except the brain in one stability condition). For all matrices, the following stability conditions were assessed: short term at room temperature (RT), long term at − 20 °C, and after 3 freeze-thaw (F/T) cycles at − 20 °C/RT. Furthermore, for tissue homogenates, the short-term stability in ice-water, long-term stability at − 70 °C, and F/T stability at − 70 °C/ice-water were also evaluated. Additionally, the stability in the final extract was tested. For this, the QC L and QC H final extracts from the plasma, brain, and spleen and the QC M final extract from the liver, kidney and small intestine were stored at 4–8 °C up to 3 days. Lastly, the stability of the stock solutions at − 20 °C was investigated.

[2] = Plasma pharmacokinetics in mice after oral administration; format: in vivo, mouse (FVB); details: FVB, po; mouse plasma, 10 mg/kg orally administered, t = 2 h; read-out: plasma concentration of representative sample
Description: This method was developed to support pharmacokinetic and tissue distribution studies of the CDK4/6 inhibitors in mice (FVB background). These studies were done separately for each drug. Animal housing and studies were conducted according to institutional guidelines complying with Dutch and European Union legislation (approval number from The Dutch Central Animal Testing Committee: AVD301002016595). […] Approximately 50 μL of blood was collected from the tip of the tail at several time points, except at the last one, when 500–1000 μL of blood was collected by cardiac puncture under isoflurane anesthesia. […] Mice were sacrificed by cervical dislocation and the organs were collected and weighed. Plasma was obtained using sodium heparin as anticoagulant after centrifugation at 9000g, 4 °C, for 6 min. When necessary, 10 μL of mouse plasma was diluted with 40 μL of human plasma. The tissue homogenates were prepared according to the procedure described in the “Tissue homogenate preparation” section. Plasma and tissue homogenate samples were stored at − 20 and − 70 °C, respectively, until the LC-MS/MS analysis was performed.

[3] = Stability in tissue homogenates; format: in vitro ADME, mouse; details: room temperature and ice/water bath
Description: as §1

CDK4 = details: cited from earlier work
CDK6 = details: cited from earlier work

concentration at 2 h [2]: 311 ng/mL
SMILES: CC(=O)c1c(C)c2cnc(Nc3ccc(N4CCNCC4)cn3)nc2n(C2CCCC2)c1=O [Palbociclib]
IC50 (CDK6): 15 nM
